For one molecule, IC50 results are on record in US12344623B2, “Thiazolopyridine derivatives as adenosine receptor antagonists” (Merck Patent GmbH, priority 2019, dated 2025).

Common to all, as to format: cell-based
For one experiment, the target named is T1, human A1 receptor (Homo sapiens, UniProt P30542).
T1 construct: expressed in transfected cells; host or cells: CHO
T1 sequence (P30542 1-326): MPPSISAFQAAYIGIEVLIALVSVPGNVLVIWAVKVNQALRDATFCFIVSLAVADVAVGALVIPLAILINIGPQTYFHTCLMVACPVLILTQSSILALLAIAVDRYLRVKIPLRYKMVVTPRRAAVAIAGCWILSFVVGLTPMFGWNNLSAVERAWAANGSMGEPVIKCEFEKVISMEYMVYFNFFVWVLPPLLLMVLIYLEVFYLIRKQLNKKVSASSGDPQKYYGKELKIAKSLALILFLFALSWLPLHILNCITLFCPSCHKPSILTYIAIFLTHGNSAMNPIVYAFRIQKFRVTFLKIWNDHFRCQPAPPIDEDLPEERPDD
Kind of experiment: Functional A1 receptor activity, recombinant CHO cells, cAMP (HTRF), forskolin, agonist CPA. To be noted: recombinant CHO cells, forskolin, agonist CPA; read-out: Functional A1 receptor activity, CHO, cAMP, IC50. In a few lines: (§1)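 Recombinant CHO cells expressing A1 or A3 receptor (Gi-coupled) were stimulated with forskolin together with test compound and agonist (CPA for A1, IB-MECA for A3), incubated 30 min, then cellular cAMP was read by HTRF. Data were normalized to inhibitor control and DMSO neutral control, then curve-fitted.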
In general terms: TR-FRET usually uses a lanthanide donor and a delayed reading to cut background.

In another experiment the target is human A2A receptor (Homo sapiens, UniProt P29274). Kind of experiment: Functional A2A receptor activity, recombinant HEK293 cells, cAMP (HTRF), agonist NECA. Also noted: expressed in transfected cells; host or cells: HEK293. To be noted: read-out: Functional A2A receptor activity, HEK293, cAMP, IC50. In a few lines: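 Cellular cAMP measured by HTRF after 30 min incubation of cells with forskolin, test compounds and agonist. Data normalized to inhibitor control and DMSO neutral control, then curve-fitted.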

Another experiment concerns mouse Pan T cells. Description: mTcell assay, IL-2, rescue of cytokine secretion, agonist NECA. To be noted: mouse Pan T cells, CD3/CD28 activated, NECA 1 μM, IL-2 rescue, 24 h. Summed up:
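Splenic Pan T cells from BALB/c mice, rested 1 h at 37° C, were stimulated with CD3/CD28 beads, then after 30 min given graded antagonist doses with A2A agonist. IL-2 in supernatants was measured by ELISA after 24 h; IC50 derived from percent rescue relative to DMSO and agonist-alone controls.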

For the next experiment, the system named is human T cells. Description: hTcell data, IL-2 (human T cells, IL-2 readout; method not given). To be noted: compounds of the present invention.
The next experiment has as its target T2, human A3 receptor (Homo sapiens, UniProt P0DMS8).
T2 construct: expressed in transfected cells; host or cells: CHO
T2 sequence (P0DMS8 1-318): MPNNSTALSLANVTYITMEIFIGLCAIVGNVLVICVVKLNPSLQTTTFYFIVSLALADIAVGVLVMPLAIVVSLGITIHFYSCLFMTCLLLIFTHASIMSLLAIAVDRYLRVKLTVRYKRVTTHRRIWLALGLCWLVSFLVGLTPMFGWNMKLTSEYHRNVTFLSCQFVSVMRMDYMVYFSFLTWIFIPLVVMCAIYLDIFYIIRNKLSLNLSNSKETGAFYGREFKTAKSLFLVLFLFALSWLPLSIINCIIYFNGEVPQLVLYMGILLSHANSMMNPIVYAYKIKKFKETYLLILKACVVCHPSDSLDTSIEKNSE
Kind of experiment: Functional A3 receptor activity, recombinant CHO cells, cAMP (HTRF), forskolin, agonist IB-MECA. Particulars: recombinant CHO cells, forskolin, agonist IB-MECA; read-out: Functional A3 receptor activity, CHO, cAMP, IC50. Summed up: as §1

Chain of human A2A receptor (P29274 whole entry): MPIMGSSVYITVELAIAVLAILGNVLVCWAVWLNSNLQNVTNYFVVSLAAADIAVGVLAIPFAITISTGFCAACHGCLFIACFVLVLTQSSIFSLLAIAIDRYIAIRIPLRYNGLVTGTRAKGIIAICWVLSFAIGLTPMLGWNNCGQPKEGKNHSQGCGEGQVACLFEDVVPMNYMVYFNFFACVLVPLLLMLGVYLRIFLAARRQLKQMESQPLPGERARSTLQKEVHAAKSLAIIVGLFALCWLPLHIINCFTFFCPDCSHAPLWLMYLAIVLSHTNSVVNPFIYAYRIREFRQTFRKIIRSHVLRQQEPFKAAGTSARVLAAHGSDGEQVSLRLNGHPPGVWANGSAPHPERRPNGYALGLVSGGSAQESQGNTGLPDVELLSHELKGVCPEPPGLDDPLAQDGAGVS

As for `COc1ncc(C2=CCOCC2)c2sc(NC(=O)N3CC[C@@]4(CCCOC4)C3)nc12` [Compound 25, (S)-7-Oxa-2-aza-spiro[4.5]decane-2-carboxylic acid [7-(3,6-dihydro-2H-pyran-4-yl)-4-methoxy-thiazolo[4,5-c]pyridin-2-yl]-amide], the concentration for half-maximal inhibition (IC50) was > 1000 nM on human A1 receptor; < 10 nM on human A2A receptor; < 10 nM in the experiment on mouse Pan T cells; < 10 nM in the experiment on human T cells; > 1000 nM at human A3 receptor.

A word on the IC50: it is the concentration that gives 50% inhibition.
